“And” between values parts separate entries of the source, which are not always exact repeats. Identical values can stand only once.
What was measured:
[1] = test system: feline leukaemia virus (FeLV); experiment: In vitro anti-feline leukaemia virus activity, indirect fluorescent antigen test in FLF-3 cells; assay type: cell-based, feline embryo lung fibroblasts (FLF-3); conditions: 3 days incubation at 37°C
Protocol: (§1) • (i) In Vitro Activity Susceptible feline embryo lung fibroblasts (FLF-3) were seeded onto multiwell slides (10⁵ cells/ml, 0.05ml/well) with Dulbecco-modified Eagle's essential medium (DME) and incubated at 37°C overnight. […] Concentrations were […]. After 3 days incubation at 37°C, the cultures were assayed by the indirect fluorescent antigen test for the production of FeLV. […] Two cats (a) received 15mg/kg/day, three (b) received 30mg/kg/day and another two (c) received 45mg/kg/day. All doses were administered as three equal doses daily. Of cats (a), only one responded to treatment at all, showing a 10% decrease in FeLV⁺ white blood cells (wbc's). Cats (b) (after 6 weeks) all responded to treatment showing a 10% and 90% drop in Fel_V⁺ wbc's. […] All measurements were taken after 3 weeks therapy, unless otherwise stated.

[2] = test system: FeLV; experiment: In vivo anti-feline leukaemia virus activity in persistently infected cats
Protocol: as §1

[3] = Toxicity assay (LD50) in mice; conditions: mouse, in vivo
Protocol: (§2) The LD₅₀ value was in excess of 750 mg/kg in both species.

[4] = Toxicity assay (LD50) in rats; conditions: rat, in vivo
Protocol: as §2

## Cc1cn([C@H]2C[C@H](N=[N+]=[N-])[C@@H](CO)O2)c(=O)[nH]c1=O
[1]; 50µM and above
  production of FeLV: Complete absence of FeLV
[1]; 0.1µm
  activity: no activity
[1]; 1µm
  inhibition: 50-75%
[1]; 72 h, 10µM
  inhibition at 10 µM: 90%
[2]; cats (a), intravenous 15mg/kg/day in three equal doses daily, after 3 weeks, only one of two cats responded
  decrease in FeLV+ white blood cells (wbc's): 10%
[2]; cats (b), intravenous 30mg/kg/day in three equal doses daily, after 6 weeks, individual cats, 30 mg/kg/day
  drop in FeLV+ wbc's: 10% and 90% and 5%
[2]; cats (b), third cat, intravenous 30mg/kg/day, after 6 weeks
  drop in plasma levels of free FeLV: hundred-fold
[2]; cats (c), intravenous 45mg/kg/day in three equal doses daily, after 3 weeks, one of two cats
  decrease in FeLV+ wbc's: 10%
[2]; cats (c), intravenous 45mg/kg/day, after 3 weeks, one cat
  reduction in lymphadenopathy: from 2 cm to 0.5 cm
[2]; cats (c), intravenous 45mg/kg/day, after 3 weeks, the other of two cats
  response to treatment: no response
[3]
  LD50: > 750 mg/kg
[4]
  LD50: > 750 mg/kg

From EP0199451B1, “Therapeutic nucleosides” (THE WELLCOME FOUNDATION LIMITED, priority 1985, dated 1986)
